Test results reported in article PMC2873112 (Chembiochem : a European journal of chemical biology, 2010).

Key:
Cop6 [1] = molecular target: T1, Cop6 (Coprinopsis cinerea, UniProt A8NCK5, N224D); assay: product analysis by chiral GC-MS; type: biochemical; conditions: purified mutant; turnover only
Cop6 [2] = molecular target: T1, Cop6; assay: product profile by GC-MS; type: biochemical; conditions: turnover only

T1 sequence (A8NCK5 whole entry N224D): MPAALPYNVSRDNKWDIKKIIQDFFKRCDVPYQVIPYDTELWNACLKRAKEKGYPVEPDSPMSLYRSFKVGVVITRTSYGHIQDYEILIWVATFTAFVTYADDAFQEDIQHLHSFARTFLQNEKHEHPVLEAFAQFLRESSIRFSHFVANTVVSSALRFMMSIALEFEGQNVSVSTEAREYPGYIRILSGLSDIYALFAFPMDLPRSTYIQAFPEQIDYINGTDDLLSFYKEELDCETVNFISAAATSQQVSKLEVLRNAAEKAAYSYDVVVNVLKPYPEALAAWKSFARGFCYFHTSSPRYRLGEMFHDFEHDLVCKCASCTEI

SMILES | product analysis by chiral GC-MS (Cop6 [1]) | product profile by GC-MS (Cop6 [2])
CC(C)=CCC/C(C)=C/CC/C(C)=C\COP(=O)(O)OP(=O)(O)O [(Z,E)-FPP] | Mutant Cop6N224D now makes a small amount of an additional compound | 
CC(C)=CCC/C(C)=C/CC/C(C)=C/COP(=O)(O)OP(=O)(O)O [(E,E)-FPP] |  | N224D does not affect the product profile of Cop6 with its normal substrate (E,E)-FPP
